In patent US8158656B2, “2-indolinone derivatives as multi-target protein kinase inhibitors and histone deacetylase inhibitors” (Shenzhen Chipscreen Biosciences Ltd., priority 2008, dated 2012):
pEC50: −log10 of the molar value.

Columns and labels:
c-Kit = molecular target: T1, c-Kit (Homo sapiens, UniProt P10721); assay: c-KIT kinase ELISA bioassay; format: biochemical; conditions: ELISA kinase assay, 20 μM ATP
T1 construct: purchased Cell Signaling
Procedure: This assay is used to measure in vitro kinase activity of c-KIT in an ELISA assay.
• 1. Streptavidin coated, 96-well, white plate • 2. Phospho-Tyrosine Monoclonal Antibody (P-Tyr-100) (Cell Signaling) • 3. HRP-labeled anti-mouse IgG (Upstate) • 4. HTScan™ Tyrosine Kinase Buffer (4×) • 5. DTT (1000×. 1.25 M) • 6. ATP (10 mM) • 7. KDR (Tyr996) Biotinylated Peptide Substrate (Cell Signaling) • 8. c-KIT Kinase (recombinant, human) (Cell Signaling) • 9. Wash Buffer: 1× PBS, 0.05% Tween-20 (PBS/T) • 10. Bovine Serum Albumin (BSA) • 11. Stop Buffer: 50 mM EDTA pH 8 • 12. Enhanced chemiluminescence (ECL) (Amersham) Procedure for performing the assay in 96-well plate: • 1. Add 10 μl 10 mM ATP to 1.25 ml 6 μM substrate peptide. Dilute the mixture with dH20 to 2.5 ml to make 2× ATP/substrate cocktail ([ATP]=40 μM, [substrate]=3 μm). • 2. Immediately transfer enzyme from −80° C. to ice. Allow enzyme to thaw on ice. • 3. Microcentrifuge briefly at 4° C. to bring liquid to the bottom of the vial. Return immediately to ice. • 4. Add 10 μl of DTT (1.25 M) to 2.5 ml of 4× HTScan™ Tyrosine Kinase Buffer (240 mM HEPES pH 7.5, 20 mM MgCl2, 20 mM MnCl2, 12 μM Na3VO4) to make DTT/Kinase buffer. • 5. Transfer 1.25 ml of DTT/Kinase buffer to enzyme tube to make 4× reaction cocktail ([enzyme]=4 ng/μL in 4× reaction cocktail). • 6. Incubate 12.5 μl of the 4× reaction cocktail with 12.5 μl/well of prediluted compound of interest (usually around 10 μM) for 5 minutes at room temperature. • 7. Add 25 μl of 2× ATP/substrate cocktail to 25 μl/well preincubated reaction cocktail/compound. Final Assay Conditions for a 50 μl Reaction: • 60 mM HEPES pH 7.5 • 5 mM MgCl2 • 5 mM MnCl2 • 3 μM Na3VO4 • 1.25 mM DTT • 20 μM ATP • 1.5 μM peptide • 100 ng c-KIT Kinase • 8. Incubate reaction plate at room temperature for 30 minutes. • 9. Add 50 μl/well Stop Buffer (50 mM EDTA, pH 8) to stop the reaction. • 10. Transfer 25 μl of each reaction and 75 μl dH2O/well to a 96-well streptavidincoated plate and incubate at room temperature for 60 minutes. • 11. Wash three times with 200 μl/well PBS/T • 12. Dilute primary antibody, Phospho-Tyrosine Monoclonal Antibody (P-Tyr-100), 1:1000 in PBS/T with 1% BSA. Add 100 μl/well of primary antibody. • 13. Incubate at room temperature for 60 minutes. • 14. Wash three times with 200 μl/well PBS/T • 15. Dilute HRP labeled anti-mouse IgG 1:500 in PBS/T with 1% BSA. Add 100 μl/well diluted antibody. • 16. Incubate at room temperature for 30 minutes. • 17. Wash five times with 200 μl/well PBS/T. • 18. Add 100 μl/well ECL Solution. • 19. Detect luminescence with appropriate Plate Reader. Flt3 Bioassay

Class I HDAC = assay: P21 reporter assay in HeLa cells; format: cell-based, human; conditions: for Class I HDAC (P21 reporter assay) % Max Resp of CS055 at 3 μM: relative to CS055 at 3 μM; for pEC50: 24 hours
Procedure: (§1) HDAC subtype selectivity inhibition assay of tested compounds was carried out by several reporter gene assays experiments. Briefly, HeLa cells were seeded in 96-well plates the day before transfection to give a confluence of 50-80%. Cells were transfected with one of reporter gene plasmid containing a promoter sequence or response element upstream of a luciferase gene construct using FuGene6 transfection reagent according to the manufacturer's instruction (Roche). The promoters or response elements including p21-promoter, gdf11-promoter, MEF-binding element (MEF2), Nur77-promoter were fused upstream to the luciferase gene reporter construct. For normalizing the transfection efficiency, a GFP expression plasmid was cotransfected. Cells were allowed to express protein for 24 hours followed by addition of individual compounds or the vehicle (DMSO). 24 hours later the cells were harvested, and the luciferase assay and GFP assay were performed using corresponding assay kits according to the manufacturer's instructions (Promega).

HDAC7 = molecular target: T2, HDAC7 (Homo sapiens, UniProt Q8WUI4); assay: Nur77 reporter assay in HeLa cells; format: cell-based; conditions: for HDAC7 (Nur77 reporter assay) % Max Resp of CS055 at 3 μM: relative to CS055 at 3 μM; for pEC50: 24 hours
T2 construct: endogenous in cells; host or cells: HeLa
T2 sequence (Q8WUI4 1-952): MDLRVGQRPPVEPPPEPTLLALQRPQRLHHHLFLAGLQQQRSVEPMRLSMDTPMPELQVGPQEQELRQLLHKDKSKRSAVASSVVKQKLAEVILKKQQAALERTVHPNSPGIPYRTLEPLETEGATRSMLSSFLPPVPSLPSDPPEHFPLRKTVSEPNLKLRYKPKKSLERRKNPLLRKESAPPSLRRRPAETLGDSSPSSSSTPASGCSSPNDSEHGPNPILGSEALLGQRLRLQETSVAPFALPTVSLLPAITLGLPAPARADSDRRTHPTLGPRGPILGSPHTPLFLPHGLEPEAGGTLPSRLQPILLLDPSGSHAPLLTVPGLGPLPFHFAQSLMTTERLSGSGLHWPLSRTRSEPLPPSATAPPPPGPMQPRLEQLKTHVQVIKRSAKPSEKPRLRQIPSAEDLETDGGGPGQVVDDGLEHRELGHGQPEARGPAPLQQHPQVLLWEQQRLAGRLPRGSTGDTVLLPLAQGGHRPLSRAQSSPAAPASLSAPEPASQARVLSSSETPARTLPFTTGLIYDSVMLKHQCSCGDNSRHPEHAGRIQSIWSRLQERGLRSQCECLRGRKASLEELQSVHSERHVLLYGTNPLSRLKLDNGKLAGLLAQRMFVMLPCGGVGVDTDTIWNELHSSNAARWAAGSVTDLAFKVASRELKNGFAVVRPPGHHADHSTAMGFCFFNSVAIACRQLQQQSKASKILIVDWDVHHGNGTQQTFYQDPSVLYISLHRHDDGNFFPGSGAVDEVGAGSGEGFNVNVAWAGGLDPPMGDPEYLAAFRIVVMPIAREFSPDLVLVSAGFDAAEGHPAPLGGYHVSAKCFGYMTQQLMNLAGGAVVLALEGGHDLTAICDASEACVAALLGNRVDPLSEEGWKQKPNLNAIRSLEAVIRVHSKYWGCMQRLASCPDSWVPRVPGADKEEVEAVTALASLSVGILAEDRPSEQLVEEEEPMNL
Procedure: as §1

T1 sequence (P10721 26-976): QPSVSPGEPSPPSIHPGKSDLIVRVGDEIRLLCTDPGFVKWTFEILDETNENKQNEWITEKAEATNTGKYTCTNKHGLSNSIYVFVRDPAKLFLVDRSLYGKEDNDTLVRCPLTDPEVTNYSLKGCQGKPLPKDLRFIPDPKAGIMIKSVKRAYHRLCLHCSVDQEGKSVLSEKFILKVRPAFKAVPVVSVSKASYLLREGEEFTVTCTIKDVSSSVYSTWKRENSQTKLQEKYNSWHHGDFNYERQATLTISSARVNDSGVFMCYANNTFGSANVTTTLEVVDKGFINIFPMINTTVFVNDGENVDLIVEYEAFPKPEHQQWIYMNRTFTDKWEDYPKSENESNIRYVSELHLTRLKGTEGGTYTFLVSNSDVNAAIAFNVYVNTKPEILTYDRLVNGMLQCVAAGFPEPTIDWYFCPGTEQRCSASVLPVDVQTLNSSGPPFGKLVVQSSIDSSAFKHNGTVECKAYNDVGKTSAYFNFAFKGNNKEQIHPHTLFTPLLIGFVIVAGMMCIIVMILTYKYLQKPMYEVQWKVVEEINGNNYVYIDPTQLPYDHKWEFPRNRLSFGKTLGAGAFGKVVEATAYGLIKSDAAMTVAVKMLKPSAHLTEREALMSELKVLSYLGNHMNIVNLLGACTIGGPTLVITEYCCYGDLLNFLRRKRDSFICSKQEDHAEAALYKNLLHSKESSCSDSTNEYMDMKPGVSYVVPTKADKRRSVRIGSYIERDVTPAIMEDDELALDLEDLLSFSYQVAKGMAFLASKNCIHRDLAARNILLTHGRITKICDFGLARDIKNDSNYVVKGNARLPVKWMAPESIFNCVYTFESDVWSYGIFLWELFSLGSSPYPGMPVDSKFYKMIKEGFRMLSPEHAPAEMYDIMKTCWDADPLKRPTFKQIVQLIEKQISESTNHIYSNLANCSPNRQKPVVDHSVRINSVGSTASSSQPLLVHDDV

SMILES	IC50 (c-Kit) [nM]	HDAC7 (Nur77 reporter assay) % Max Resp of CS055 at 3 μM (HDAC7) [%]	pEC50 (Class I HDAC)	pEC50 (HDAC7)	Class I HDAC (P21 reporter assay) % Max Resp of CS055 at 3 μM (Class I HDAC) [%]
Cc1[nH]c(/C=N/N=C2\C(=O)Nc3ccc(F)cc32)c(C)c1C(=O)NCCNc1ccc(C(=O)Nc2ccc(F)cc2N)cn1 [Example 14, N-(2-amino-4-fluorophenyl)-6-(2-(2-(((5-fluoro-2-oxoindolin-3-ylidene)-hydrazono)methyl)-3,5-dimethyl-1H-pyrrole-4-carboxamido)ethylamino)nicotinamide]	> 1000	4.5	–	–	2.1
Cc1[nH]c(/C=N/N=C2\C(=O)Nc3ccc(F)cc32)c(C)c1C(=O)NCCCCNc1ccc(C(=O)Nc2ccc(F)cc2N)cn1 [Example 20, N-(2-amino-4-fluorophenyl)-6-(4-(2-(((5-fluoro-2-oxoindolin-3-ylidene)-hydrazono)methyl)-3,5-dimethyl-1H-pyrrole-4-carboxamido)butylamino)nicotinamide]	> 1000	1.0	–	–	2.8
Cc1[nH]c(/C=N/N=C2\C(=O)Nc3ccc(F)cc32)c(C)c1C(=O)NCCNc1ccc(C(=O)Nc2ccccc2N)cn1 [Example 4, N-(2-aminophenyl)-6-(2-(2-(((5-fluoro-2-oxoindolin-3-ylidene)hydrazono)-methyl)-3,5-dimethyl-1H-pyrrole-4-carboxamido)ethylamino)nicotinamide]	> 1000	3.9	–	–	3.3
Cc1[nH]c(/C=N/N=C2\C(=O)Nc3ccc(F)cc32)c(C)c1C(=O)NCCCCNc1ccc(C(=O)Nc2ccccc2N)cn1 [Example 10, N-(2-aminophenyl)-6-(4-(2-(((5-fluoro-2-oxoindolin-3-ylidene)hydrazono)-methyl)-3,5-dimethyl-1H-pyrrole-4-carboxamido)butylamino)nicotinamide]	> 1000	13.2	–	–	7.3
Cc1[nH]c(/C=N/N=C2\C(=O)Nc3ccc(F)cc32)c(C)c1C(=O)NCCCNc1ccc(C(=O)Nc2ccc(F)cc2N)cn1 [Example 17, N-(2-amino-4-fluorophenyl)-6-(3-(2-(((5-fluoro-2-oxoindolin-3-ylidene)-hydrazono)methyl)-3,5-dimethyl-1H-pyrrole-4-carboxamido)propylamino)nicotinamide]	> 1000	3.5	–	–	3.4

The next lines start with results.

IC50 (c-Kit) [nM]	HDAC7 (Nur77 reporter assay) % Max Resp of CS055 at 3 μM (HDAC7) [%]	pEC50 (Class I HDAC)	pEC50 (HDAC7)	SMILES	Class I HDAC (P21 reporter assay) % Max Resp of CS055 at 3 μM (Class I HDAC) [%]
242	6.5	–	–	Cc1[nH]c(/C=C2\C(=O)Nc3ccc(F)cc32)c(C)c1C(=O)NCCCNc1ccc(C(=O)Nc2ccc(F)cc2N)cn1 [Example 16, (Z)-N-(2-amino-4-fluorophenyl)-6-(3-(2-((5-fluoro-2-oxoindolin-3-ylidene)-methyl)-3,5-dimethyl-1H-pyrrole-4-carboxamido)propylamino)nicotinamide]	2.5
23	88.7	4.87	4.88	Cc1[nH]c(/C=C2\C(=O)Nc3ccc(F)cc32)c(C)c1C(=O)NCCCCNc1ccc(C(=O)Nc2ccccc2N)cn1 [Example 9, (Z)-N-(2-aminophenyl)-6-(4-(2-((5-fluoro-2-oxoindolin-3-ylidene)methyl)-3,5-dimethyl-1H-pyrrole-4-carboxamido)butylamino)nicotinamide]	89.1
> 1000	12.4	–	–	Cc1[nH]c(/C=N/N=C2\C(=O)Nc3ccc(F)cc32)c(C)c1C(=O)NCCCNc1ccc(C(=O)Nc2ccccc2N)cn1 [Example 7, N-(2-aminophenyl)-6-(3-(2-(((5-fluoro-2-oxoindolin-3-ylidene)hydrazono)-methyl)-3,5-dimethyl-1H-pyrrole-4-carboxamido)propylamino)nicotinamide]	6.2
65	6.0	–	–	Cc1[nH]c(/C=C2\C(=O)Nc3ccc(F)cc32)c(C)c1C(=O)NCCCCNc1ccc(C(=O)Nc2ccc(F)cc2N)cn1 [Example 19, (Z)-N-(2-amino-4-fluorophenyl)-6-(4-(2-((5-fluoro-2-oxoindolin-3-ylidene)-methyl)-3,5-dimethyl-1H-pyrrole-4-carboxamido)butylamino)nicotinamide]	2.3
157	113.5	5.64	5.54	Cc1[nH]c(/C=C2\C(=O)Nc3ccc(F)cc32)c(C)c1C(=O)NCCNc1ccc(C(=O)Nc2ccccc2N)cn1 [Example 3, (Z)-N-(2-aminophenyl)-6-(2-(2-((5-fluoro-2-oxoindolin-3-ylidene)methyl)-3,5-dimethyl-1H-pyrrole-4-carboxamido)ethylamino)nicotinamide]	131.7
76	88.1	5.60	5.60	Cc1[nH]c(/C=C2\C(=O)Nc3ccc(F)cc32)c(C)c1C(=O)NCCCNc1ccc(C(=O)Nc2ccccc2N)cn1 [Example 6, (Z)-N-(2-aminophenyl)-6-(3-(2-((5-fluoro-2-oxoindolin-3-ylidene)methyl)-3,5-dimethyl-1H-pyrrole-4-carboxamido)propylamino)nicotinamide]	74.6
